The values that follow are results of earlier work, collected in patent publication US20210379148A1, “REGULATING MUSCLE PHYSIOLOGY AND ENERGY METABOLISM USING CRYM” (University Of Maryland, Baltimore, priority 2020, published 2021).

Sequence of μ-crystallin ketimine reductase (Q14894 whole entry): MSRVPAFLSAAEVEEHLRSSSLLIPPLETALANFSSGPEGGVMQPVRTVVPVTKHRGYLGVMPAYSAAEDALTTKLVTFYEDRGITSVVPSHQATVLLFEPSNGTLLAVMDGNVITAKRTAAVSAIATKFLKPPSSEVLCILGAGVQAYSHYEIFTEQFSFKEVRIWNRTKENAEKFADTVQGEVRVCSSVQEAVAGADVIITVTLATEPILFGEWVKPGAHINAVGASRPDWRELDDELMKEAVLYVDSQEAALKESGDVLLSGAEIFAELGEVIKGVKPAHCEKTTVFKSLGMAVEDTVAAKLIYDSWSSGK

The first data set addresses μ-crystallin ketimine reductase (Homo sapiens, UniProt Q14894). To be noted: read-out: K1, inhibition of μ-crystallin's activity as a ketimine reductase.
With `N[C@@H](Cc1cc(I)c(Oc2cc(I)c(O)c(I)c2)c(I)c1)C(=O)O` [T4], the Ki was 0.75 nM.

In a further data set the test system is CRYM mRNA.
Settings: not given
On to `C[C@]12CCC(=O)C[C@@H]1CC[C@@H]1[C@@H]2CC[C@]2(C)[C@@H](O)CC[C@@H]12` [Dihydrotestosterone], for which the “expression of CRYM mRNA” value was “Dihydrotestosterone results in increased expression of CRYM”.
As to `[K+].[K+].[O]=[Cr](=[O])([O-])[O][Cr](=[O])(=[O])[O-]` [Potassium Dichromate], the “expression of CRYM mRNA” value is listed as “Potassium Dichromate results in increased expression of”.

The data set is the same for the next values; noted with them: Methionine deficiency co-treated with Choline deficiency co-treated with Folic Acid deficiency.
In the case of `Nc1nc2ncc(CNc3ccc(C(=O)N[C@@H](CCC(=O)O)C(=O)O)cc3)nc2c(=O)[nH]1` [Folic Acid], the “expression of CRYM mRNA” value is reported as “treated with Folic Acid deficiency] results in increased”.
In the case of `CSCC[C@H](N)C(=O)O` [Methionine], the “expression of CRYM mRNA” value is on record as “treated with Folic Acid deficiency] results in increased”.

The data set is the same for the next values; noted with them: NOG protein co-treated with entinostat, dorsomorphin and 4-(5-benzo(1,3)dioxol-5-yl-4-pyridin-2-yl-1H-imidazol-2-yl)benzamide.
Regarding `NC(=O)c1ccc(-c2nc(-c3ccccn3)c(-c3ccc4c(c3)OCO4)[nH]2)cc1` [4-(5-benzo(1,3)dioxol-5-yl-4-pyridin-2-yl-1H-imidazol-2-yl)benzamide], the “expression of CRYM mRNA” value was “pyridin-2-yl-1H-imidazol-2-yl)benzamide] results in increased”.
Turning to `Nc1ccccc1NC(=O)c1ccc(CNC(=O)OCc2cccnc2)cc1` [entinostat], the “expression of CRYM mRNA” value is listed as “pyridin-2-yl-1H-imidazol-2-yl)benzamide] results in increased”.

The data set is the same for the next values; noted with them: Oxaliplatin co-treated with Topotecan.
`O=C1[O][Pt]2([NH][C@@H]3CCCC[C@H]3[NH]2)[O]C1=O` [Oxaliplatin]: the “expression of CRYM mRNA” value was “[Oxaliplatin co-treated with Topotecan] results in increased”.

Still in this data set, the particulars now being: chemical alone.
Consider `c1ccc2c(c1)ccc1cc3c(ccc4ccccc43)cc12` [1,2,5,6-dibenzanthracene], for which the “expression of CRYM mRNA” value is given as 1,2,5,6-dibenzanthracene results in increased expression of.
On to `C=CC=C` [1,3-butadiene], for which the “expression of CRYM mRNA” value is given as 1,3-butadiene results in increased expression of CRYM.
As to `Clc1cnc(Oc2ccc(Oc3ncc(Cl)cc3Cl)cc2)c(Cl)c1` [1,4-bis(2-(3,5-dichloropyridyloxy))benzene], the “expression of CRYM mRNA” value was “increased expression of CRYM mRNA”.
In the case of `CC(N)Cc1ccccc1` (stereo not drawn) [Amphetamine], the “expression of CRYM mRNA” value is on record as “Amphetamine results in increased expression of CRYM”.
Regarding `c1ccc2c(c1)cc1ccc3cccc4ccc2c1c34` [Benzo(a)pyrene], the “expression of CRYM mRNA” value is listed as “Benzo(a)pyrene results in increased expression of CRYM”.
Turning to `ClC(Cl)(Cl)Cl` [Carbon Tetrachloride], the “expression of CRYM mRNA” value is on record as “Carbon Tetrachloride results in increased expression of”.
Turning to `CCCCOC(=O)c1ccccc1C(=O)OCCCC` [Dibutyl Phthalate], the “expression of CRYM mRNA” value is listed as “Dibutyl Phthalate results in increased expression of CRYM”.
With `CCO` [Ethanol], the “expression of CRYM mRNA” value is listed as “Ethanol results in increased expression of CRYM mRNA”.
As for `CC1=C(/C=C/C(C)=C/C=C/C(C)=C/C(=O)Nc2ccc(O)cc2)C(C)(C)CCC1` [Fenretinide], the “expression of CRYM mRNA” value is listed as “Fenretinide results in increased expression of CRYM mRNA”.
Take `O=C1[O][Pt]2([NH][C@@H]3CCCC[C@H]3[NH]2)[O]C1=O` [Oxaliplatin]: the “expression of CRYM mRNA” value is recorded as “Oxaliplatin results in increased expression of CRYM mRNA”.
Turning to `CCCc1cc(=O)[nH]c(=S)[nH]1` [Propylthiouracil], the “expression of CRYM mRNA” value is listed as “Propylthiouracil results in increased expression of CRYM”.
Take `O=c1c(O)c(-c2ccc(O)c(O)c2)oc2cc(O)cc(O)c12` [Quercetin]: the “expression of CRYM mRNA” value is on record as “Quercetin results in increased expression of CRYM mRNA”.
For the molecule `Clc1cc2c(cc1Cl)Oc1cc(Cl)c(Cl)cc1O2` [Tetrachlorodibenzodioxin], the “expression of CRYM mRNA” value is recorded as “Tetrachlorodibenzodioxin results in increased expression of”.
Consider `CC[C@@]1(O)C(=O)OCc2c1cc1n(c2=O)Cc2cc3c(CN(C)C)c(O)ccc3nc2-1` [Topotecan], for which the “expression of CRYM mRNA” value is given as “Topotecan results in increased expression of CRYM mRNA”.
On to `CC1=C(/C=C/C(C)=C/C=C/C(C)=C/C(=O)O)C(C)(C)CCC1` [Tretinoin], for which the “expression of CRYM mRNA” value is reported as “Tretinoin results in increased expression of CRYM mRNA”.
As to `CCCC(CCC)C(=O)O` [Valproic Acid], the “expression of CRYM mRNA” value was “Valproic Acid results in increased expression of CRYM”.
Turning to `CN[C@@H](Cc1c[nH]c2ccccc12)C(=O)O` [abrine], the “expression of CRYM mRNA” value is recorded as “abrine results in increased expression of CRYM mRNA”.
`CNC(=O)O[C@@H](CC(C)C)c1nc([C@H]2OC(=O)/C=C/C/C(C)=C/[C@@H](O)[C@@H](C)\C=C(C)/C=C(C)\C=C\[C@@H](O)[C@H](C)[C@H](OC)/C(C)=C/C=C/[C@@H]2C)cs1` [archazolid B]: the “expression of CRYM mRNA” value was “archazolid B results in increased expression of CRYM mRNA”.
Regarding `O=S(=O)(c1ccc(O)cc1)c1ccc(O)cc1` [bis(4-hydroxyphenyl)sulfone], the “expression of CRYM mRNA” value is “bis(4-hydroxyphenyl)sulfone results in increased expression”.
With `Oc1ccc(Cc2ccc(O)cc2)cc1` [bisphenol F], the “expression of CRYM mRNA” value is “bisphenol F results in increased expression of CRYM mRNA”.
Take `CCCC=O` [butyraldehyde]: the “expression of CRYM mRNA” value is recorded as “butyraldehyde results in increased expression of CRYM”.
Consider `Nc1ccccc1NC(=O)c1ccc(CNC(=O)OCc2cccnc2)cc1` [entinostat], for which the “expression of CRYM mRNA” value is “entinostat results in increased expression of CRYM mRNA”.
For the molecule `CCCCC=O` [pentanal], the “expression of CRYM mRNA” value was “pentanal results in increased expression of CRYM mRNA”.
Take `CCC=O` [propionaldehyde]: the “expression of CRYM mRNA” value is given as “propionaldehyde results in increased expression of CRYM”.

Another data set concerns the target thyroid hormone receptors (TR) α and β. To be noted: read-out: KD, binding to thyroid hormone receptors (TR) α and β.
The term Kd denotes the concentration at which binding is half-saturated. `N[C@@H](Cc1cc(I)c(Oc2cc(I)c(O)c(I)c2)c(I)c1)C(=O)O` [T4]: the Kd was 2 nM.

A further data set relates to skeletal muscles (soleus, EDL). The conditions noted are these: rats, thyrotoxic doses of T3 and T4.
Take `N[C@@H](Cc1cc(I)c(Oc2ccc(O)c(I)c2)c(I)c1)C(=O)O` [T3, triiodothyronine]: the “effect on fast twitch extensor digitorum longus (EDL) muscles” value was “no effect”.
On to `N[C@@H](Cc1cc(I)c(Oc2cc(I)c(O)c(I)c2)c(I)c1)C(=O)O` [T4], for which the “effect on fast twitch extensor digitorum longus (EDL) muscles” value is recorded as “no effect”.

Staying with this data set, now noted: rats, thyrotoxic doses of T3 and T4; without accompanying changes in contractile velocity.
In the case of `N[C@@H](Cc1cc(I)c(Oc2ccc(O)c(I)c2)c(I)c1)C(=O)O` [T3, triiodothyronine], the “effect on slow twitch soleus muscle” value is “shift in slow twitch soleus muscle from slow to faster characteristics”.
As for `N[C@@H](Cc1cc(I)c(Oc2cc(I)c(O)c(I)c2)c(I)c1)C(=O)O` [T4], the “effect on slow twitch soleus muscle” value is recorded as “shift in slow twitch soleus muscle from slow to faster characteristics”.

A further data set concerns CRYM protein. The conditions noted are these: chemical alone.
With `CN[C@@H](C)Cc1ccccc1` [Methamphetamine], the “expression of CRYM protein” value was “Methamphetamine results in increased expression of CRYM”.
Take `C[C@@H]1Cc2c(Cl)cc(C(=O)N[C@@H](Cc3ccccc3)C(=O)O)c(O)c2C(=O)O1` [ochratoxin A]: the “expression of CRYM protein” value is “ochratoxin A results in increased expression of CRYM protein”.
